What was measured:
rats [1] = experiment: Reversal of the effect of the mGluR2 PAM JNJ-42153605 on scopolamine-induced hyperlocomotion; type: in vivo; conditions: Rattus norvegicus, 1 h, test compound 60 min before recording, criterion total distance >1500 cm
Method in brief: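 Rats pretreated with test compound or vehicle 60 min before recording, given JNJ-42153605 (20 mg/kg, i.v.) at 30 min prior, then scopolamine (0.16 mg/kg, i.v.) immediately before. Total distance travelled over the first 30 min was video-tracked. All-or-none scoring: reversal >1500 cm, normalization >4400 cm.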

[2] = tested on: rat hippocampal brain slices; experiment: Reversal of mGluR2-agonism (LY-354740-depressed fEPSP) in hippocampal brain slices; type: cell-based
Description: 7) Reversal of mGluR2-Agonism in Hippocampal Brain Slices Introduction
Electrophysiology recordings of field excitatory postsynaptic potentials (fEPSPs) in acute hippocampal brain slices represent a model for testing synaptic transmission and plasticity. The effect of Co. No. 1 on synaptic transmission and plasticity in dentate gyms synapses was investigated using this model.
(§1) Recordings of fEPSPs were made from hippocampal brain slices using a multi-electrode array (MEA) biochip, and 3-dimensional-(3D) tip electrodes, according to a standard protocol. These recordings were used to monitor glutamate-mediated synaptic transmission (FIG. 4).

[3] = Ro-4-1284 interaction test in rats; type: in vivo, rat; conditions: rat, in vivo, po; read-out: ED50 effect on body temperature immediately before the injection of Ro-4-1284
Method: (§2) 5) Ro-4-1284 Interaction Test in Rats The relative ability of Co. No. 1 to increase palpebral opening was also studied in rats challenged with another monoamines depleting agent, viz. Ro-4-1284 (1.25 mg/kg, s.c.). Effects on body temperature immediately before the injection of Ro-4-1284 were also measured. The cumulative palpebral opening score (every 5 min over a 1-h period) was used for evaluation. The median cumulative palpebral opening in solvent-pretreated control animals (n=70) was 18; a scores >25 occurred in only 1.4% of these control animals and was adopted as all-or-none criterion for drug-induced reversal of the Ro-4-1284-induced palpebral ptose. Co.

rats [4] = experiment: Ro-4-1284 interaction test in rats; type: in vivo, rat; conditions: Rattus norvegicus; p.o.; Ro-4-1284 1.25 mg/kg s.c.; cumulative score over 1 h; read-out: ED50 increase of palpebral opening to scores >25 (reversal of Ro-4-1284-induced palpebral ptose)
Method: as §2

[5] = tested on: rat hippocampal brain slices; experiment: Long-term potentiation in the dentate gyrus of hippocampal brain slices; type: cell-based; conditions: 10 μM
Method: as §1
Subsequently, the effects of Co. No. 1 on synaptic function using long-term potentiation (LTP) protocols in the dentate gyms (Goeldner et. al., Neuropharmacology 2013, 64, 337-346) were evaluated.
Small magnitude LTP (110%) was induced using isolated glutamatergic-mediated fEPSP: trains of theta-burst stimulation that are known to induce LTP at these particular synapses were applied (Dinklo et al., J. Pharmacol. Exp. Ther. 2011, 336(2), 560-574). In the presence of 10 μM Co. No. 1, the magnitude of LTP was enhanced by 150% compared to baseline (p=0.005). […] At the end of the experiments, addition of 1 mM kynurenic acid to block glutamatergic neurotransmission, confirmed that the post-synaptic response is mediated by glutamate neurotransmission.

Which results are given for `Cc1cc(-c2cnn3c2C(=O)N(c2ccc(C(F)(F)F)cc2)C[C@@H]3C)ccn1` [compound 1, (7S)-7-Methyl-3-(2-methylpyridin-4-yl)-5-[4-(trifluoromethyl)phenyl]-6,7-dihydropyrazolo[1,5-a]pyrazin-4(5H)-one]?
ED50 (rats [1]; Route PO): 0.45 mg/kg; ED50 (rats [1]; Route SC): 3.54 mg/kg; paired-pulse ratio (PPR) ([2]; 10 μM Co. No. 1 after LY-354740 1 μM): decrease of the PPR; recovery of the LY-354740-induced depression of fEPSP ([2]; 10 μM, fifteen min after application, LY-354740 1 μM, n=17 slices from 4 rats): 80%; ED50 [3]: > 10 mg/kg; ED50 (rats [4]): 0.51 mg/kg; post-theta potentiation (PTP) ([5]; vehicle 120%, p=0.01, 22 slices from 4 SD rats): 160%; magnitude of LTP compared to baseline ([5]; weak theta-burst stimulation, p=0.005, control LTP 110%): 150%

From US10106542B2, “Substituted 6,7-dihydropyrazolo[1,5-a]pyrazines as negative allosteric modulators of mGluR2 receptors” (Janssen Pharmaceutica NV, priority 2013, dated 2018)
